Measurements from the supplement of paper PMC10307832.

Legend:
Experiment in all cases: relative viability (nuclei count vs DMSO), 5 days (fraction); higher = more cells survive
Imatinib + Alpelisib = compound: Cc1ccc(NC(=O)c2ccc(CN3CCN(C)CC3)cc2)cc1Nc1nccc(-c2cccnc2)n1 [Imatinib] + Cc1nc(NC(=O)N2CCC[C@H]2C(N)=O)sc1-c1ccnc(C(C)(C)C(F)(F)F)c1 [Alpelisib] (partner 2 µM)
Summary of the method: (§1)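 Lung cancer cell lines in 1536-well plates got either a single drug or a fixed anchor-drug dose together with five library-drug doses (not always all listed) in √10 steps, by pin tool, on the day after seeding. Nuclei were counted after 5 days, and relative viability is the treated-to-vehicle ratio of nuclei counts. Values are medians of duplicate plates.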

Imatinib + Crizotinib = compound: Cc1ccc(NC(=O)c2ccc(CN3CCN(C)CC3)cc2)cc1Nc1nccc(-c2cccnc2)n1 [Imatinib] + C[C@@H](Oc1cc(-c2cnn(C3CCNCC3)c2)cnc1N)c1c(Cl)ccc(F)c1Cl [Crizotinib] (partner 1 µM)
Summary of the method: as §1

Imatinib + Pictilisib = compound: Cc1ccc(NC(=O)c2ccc(CN3CCN(C)CC3)cc2)cc1Nc1nccc(-c2cccnc2)n1 [Imatinib] + CS(=O)(=O)N1CCN(Cc2cc3nc(-c4cccc5[nH]ncc45)nc(N4CCOCC4)c3s2)CC1 [Pictilisib] (partner 1 µM)
Summary of the method: as §1

Imatinib + Trametinib = compound: Cc1ccc(NC(=O)c2ccc(CN3CCN(C)CC3)cc2)cc1Nc1nccc(-c2cccnc2)n1 [Imatinib] + CC(=O)Nc1cccc(-n2c(=O)n(C3CC3)c(=O)c3c(Nc4ccc(I)cc4F)n(C)c(=O)c(C)c32)c1 [Trametinib] (partner 0.02 µM)
Summary of the method: as §1

Cell Line	relative viability (Imatinib + Alpelisib; first compound 0.02 µM)	relative viability (Imatinib + Alpelisib; first compound 0.2 µM)	relative viability (Imatinib + Alpelisib; first compound 0.6325 µM)	relative viability (Imatinib + Alpelisib; first compound 2 µM)	relative viability (Imatinib + Crizotinib; first compound 0.02 µM)	relative viability (Imatinib + Crizotinib; first compound 0.06325 µM)	relative viability (Imatinib + Crizotinib; first compound 0.2 µM)	relative viability (Imatinib + Crizotinib; first compound 0.6325 µM)	relative viability (Imatinib + Crizotinib; first compound 2 µM)	relative viability (Imatinib + Pictilisib; first compound 0.02 µM)	relative viability (Imatinib + Pictilisib; first compound 0.06325 µM)	relative viability (Imatinib + Pictilisib; first compound 0.2 µM)	relative viability (Imatinib + Pictilisib; first compound 0.6325 µM)	relative viability (Imatinib + Pictilisib; first compound 2 µM)	relative viability (Imatinib + Alpelisib; first compound 0.06325 µM)	relative viability (Imatinib + Trametinib; first compound 0.02 µM)	relative viability (Imatinib + Trametinib; first compound 0.2 µM)	relative viability (Imatinib + Trametinib; first compound 0.6325 µM)	relative viability (Imatinib + Trametinib; first compound 2 µM)	relative viability (Imatinib + Trametinib; first compound 0.06325 µM)
EBC-1	0.763	0.893	0.823	0.634	0.185	0.204	0.19	0.196	0.208	0.425	0.405	0.387	0.304	0.334	–	–	–	–	–	–
NCI-H727	0.496	0.529	0.659	–	–	0.853	0.944	0.845	0.792	0.356	0.442	0.355	0.524	0.383	0.585	0.334	0.411	0.392	0.411	–
Calu-6	1.1	1.11	1.01	0.946	1.09	1.17	0.985	0.818	0.652	1.18	1.11	1.16	0.887	0.89	–	–	–	–	–	–
LOU-NH91	0.77	0.729	0.68	0.674	0.747	0.778	0.767	0.677	0.769	0.51	0.546	0.49	0.537	0.498	0.722	0.801	0.819	0.83	0.754	0.782
NCI-H1993	–	0.533	0.621	0.534	–	0.905	–	0.927	0.815	–	0.861	0.805	0.997	0.924	0.792	0.45	0.622	0.447	0.584	0.482
NCI-H322M	0.771	0.857	0.772	0.866	0.966	1.1	–	0.836	–	0.516	0.454	0.561	0.485	0.565	0.871	0.45	0.546	0.535	0.507	0.48
NCI-H2347	1.15	0.933	1.11	1.09	0.675	0.674	0.729	0.647	0.797	0.414	0.508	0.64	0.453	0.738	0.968	0.35	0.309	0.285	0.273	–
NCI-H1437	1.13	1.02	0.981	0.94	1.02	1.15	1.1	1.07	0.878	0.391	0.454	0.422	0.463	0.424	1.16	0.569	0.607	0.544	0.494	0.345
HCC-44	0.895	0.941	0.71	0.791	0.921	0.841	0.911	0.841	0.712	0.604	0.653	0.974	0.548	0.529	0.819	1.1	1.24	0.94	1.11	–
NCI-H1651	0.994	1.18	0.894	1.01	0.916	0.775	–	0.855	0.891	0.759	0.62	0.698	0.634	0.569	1.19	0.876	0.859	0.84	0.82	0.795
NCI-H1944	0.85	0.893	0.714	0.84	1.24	–	–	0.935	–	0.353	–	0.368	0.324	0.335	–	0.408	0.449	0.436	0.402	0.376
COR-L 105	1.29	1.18	0.882	1.01	0.793	–	0.791	0.827	0.726	0.37	0.372	0.508	0.406	0.385	1.35	0.44	0.452	0.433	0.419	0.495
NCI-H1648	–	–	–	–	–	–	–	–	–	–	–	–	–	–	–	0.422	0.459	0.301	0.478	0.364
RERF-LC-KJ	0.841	0.8	–	0.8	0.867	0.885	0.51	0.855	0.826	0.636	0.422	0.541	0.487	0.498	0.723	0.806	0.936	0.909	0.771	0.97
NCI-H3122	0.763	0.894	0.865	0.837	0.253	0.292	0.324	0.313	0.255	0.647	0.551	0.572	0.666	0.679	0.939	0.25	0.236	0.253	0.216	0.292
LU99A	0.575	0.599	0.523	0.514	0.53	0.735	0.534	0.536	0.532	0.353	0.333	0.3	0.354	0.335	0.604	0.53	0.517	0.556	0.318	0.638
ChaGo-K-1	–	–	–	–	1.12	1.35	1.31	0.976	1.05	0.88	0.497	0.589	–	–	–	0.927	0.833	0.81	0.871	–
HOP-62	1.13	0.758	–	0.934	0.87	–	0.984	1.06	1	0.775	–	0.822	0.569	0.958	–	0.376	0.359	0.357	0.401	–
COR-L23	0.794	0.969	0.806	0.902	0.807	0.73	0.809	0.685	0.632	1.02	0.715	1.1	0.786	–	1.02	0.636	0.72	0.697	0.648	0.494
SK-MES-1	0.887	1.03	0.954	0.988	1.08	0.999	1.16	1.05	0.971	0.366	0.323	0.39	0.357	0.379	0.891	0.642	0.589	0.587	0.588	0.663

Cell Line	relative viability (Imatinib + Alpelisib; first compound 0.02 µM)	relative viability (Imatinib + Alpelisib; first compound 0.2 µM)	relative viability (Imatinib + Alpelisib; first compound 0.6325 µM)	relative viability (Imatinib + Alpelisib; first compound 2 µM)	relative viability (Imatinib + Crizotinib; first compound 0.02 µM)	relative viability (Imatinib + Crizotinib; first compound 0.06325 µM)	relative viability (Imatinib + Crizotinib; first compound 0.2 µM)	relative viability (Imatinib + Crizotinib; first compound 0.6325 µM)	relative viability (Imatinib + Crizotinib; first compound 2 µM)	relative viability (Imatinib + Pictilisib; first compound 0.02 µM)	relative viability (Imatinib + Pictilisib; first compound 0.06325 µM)	relative viability (Imatinib + Pictilisib; first compound 0.2 µM)	relative viability (Imatinib + Pictilisib; first compound 0.6325 µM)	relative viability (Imatinib + Pictilisib; first compound 2 µM)	relative viability (Imatinib + Alpelisib; first compound 0.06325 µM)	relative viability (Imatinib + Trametinib; first compound 0.02 µM)	relative viability (Imatinib + Trametinib; first compound 0.2 µM)	relative viability (Imatinib + Trametinib; first compound 0.6325 µM)	relative viability (Imatinib + Trametinib; first compound 2 µM)	relative viability (Imatinib + Trametinib; first compound 0.06325 µM)
NCI-H2170	0.954	0.846	0.789	0.797	1.5	1.49	1.52	1.3	1.22	0.292	0.334	0.283	0.254	0.26	0.931	1	1.02	0.972	0.965	1.06
LCLC-103H	0.909	0.9	0.851	–	1.16	–	–	0.937	–	0.67	–	0.692	0.578	–	–	0.752	0.742	0.655	0.658	0.673
NCI-H1793	0.721	0.801	0.73	0.674	–	–	–	–	–	0.272	–	0.332	0.412	0.413	–	0.472	0.582	0.404	0.368	–
NCI-H1975	0.61	0.775	0.621	0.553	1.1	1.16	1.1	0.916	1.07	0.332	0.311	0.294	0.28	0.324	0.721	0.364	0.375	0.41	0.326	0.273
NCI-H520	0.645	1.07	0.842	0.912	0.764	0.978	0.874	0.963	0.647	0.348	0.362	0.305	0.289	0.306	1.15	0.775	0.669	0.674	0.8	0.531
NCI-H1915	1.07	1.09	1.05	0.966	0.905	–	1.03	0.885	0.897	0.962	–	1.01	0.958	0.871	–	0.328	0.293	0.304	0.312	–
SK-LU-1	1.07	1.19	0.962	–	1.04	0.927	1.11	0.926	1.04	0.738	0.682	0.633	–	0.611	1.37	0.465	0.52	0.514	0.529	0.485
NCI-H441	0.633	0.87	0.706	0.605	0.659	0.796	0.796	0.879	0.737	0.501	0.437	0.578	0.502	0.435	0.903	0.537	0.572	0.517	0.37	0.459
NCI-H1650	–	–	–	–	1.04	1.06	1.2	0.904	1.11	0.638	0.338	0.589	0.574	0.661	–	0.579	0.404	0.635	0.559	0.471
EPLC-272H	1.04	0.987	1.03	0.843	0.973	–	1.16	–	1.03	0.301	–	0.402	0.344	0.286	–	0.256	–	0.295	0.268	–
EMC-BAC-2	0.823	0.877	0.788	0.844	0.825	0.761	0.872	0.685	0.707	0.513	0.505	0.614	0.536	0.582	0.81	0.887	0.904	1.07	0.853	1
ABC-1	1.1	1.35	1.13	0.888	1.34	–	1.43	1.15	1.07	0.685	–	0.669	0.914	0.679	–	–	–	–	–	–
SW 900	–	–	–	–	–	–	–	–	–	–	–	–	–	–	–	0.776	0.641	0.756	0.76	0.625
NCI-H1299	1.16	1.14	1.12	0.983	–	–	–	–	–	0.868	1.07	0.833	0.954	0.776	1.1	–	–	–	–	–
NCI-H1395	1.03	1.08	1	0.999	–	–	–	–	–	0.622	–	0.6	0.651	0.605	–	1.07	1.13	0.999	0.997	–
NCI-H1563	0.966	1.03	0.934	0.895	0.823	0.884	0.863	0.884	0.825	0.662	0.537	0.634	0.605	0.589	0.931	–	–	–	–	–
IA-LM	0.838	0.928	0.967	0.702	0.991	0.744	0.999	0.781	0.735	0.431	0.497	0.317	0.586	0.373	1.1	–	–	–	–	–
NCI-H1703	0.355	0.206	0.242	0.143	0.773	0.88	0.437	0.304	0.186	–	0.268	0.219	0.256	0.235	0.259	–	–	–	–	–
NCI-H2126	–	–	–	–	1.04	–	1.05	1	0.984	0.507	–	0.484	0.452	0.475	–	0.525	0.565	0.57	0.574	0.43
NCI-H2342	–	–	–	–	–	–	–	–	–	–	–	–	–	–	–	0.847	0.869	0.828	0.853	0.814
